Measurements reported in patent US7208500B2, “Thienopyridine-phenylacetamides and their derivatives useful as new anti-angiogenic agents” (Agouron Pharmaceuticals, Inc., priority 2003, dated 2007).

What was measured:
[1] = molecular target: T1, FGF-R1 intracellular kinase domain (Homo sapiens, UniProt P11362, C488A/C584S/L457V); assay: FGF-R spectrophotometric assay; type: biochemical; details: 50 nM test compound; read-out: FGF-P (% inh @ 50 nM)
T1 construct: starting from the endogenous methionine residue 456 to glutamate 766; made in house; host or cells: baculovirus vector expression system
T1 sequence (P11362 456-766 L457V/C488A/C584S): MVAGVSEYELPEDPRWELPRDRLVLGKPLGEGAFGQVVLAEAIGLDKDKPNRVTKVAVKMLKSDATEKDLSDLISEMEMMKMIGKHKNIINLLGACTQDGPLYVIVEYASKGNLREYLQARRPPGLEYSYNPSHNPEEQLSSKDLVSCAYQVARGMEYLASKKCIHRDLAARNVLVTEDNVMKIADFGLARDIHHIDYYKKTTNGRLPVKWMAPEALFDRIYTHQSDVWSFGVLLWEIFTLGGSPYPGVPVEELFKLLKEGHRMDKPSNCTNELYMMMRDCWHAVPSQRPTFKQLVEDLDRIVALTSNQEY
Description: The intracellular kinase domain of human FGF-R1 was expressed using the baculovirus vector expression system starting from the endogenous methionine residue 456 to glutamate 766, according to the residue numbering system of Mohammadi et al., Mol. Cell. Biol., 16, 977–989 (1996). In addition, the construct also has the following 3 amino acid substitutions: L457V, C488A, and C584S.
The spectrophotometric assay was carried out as described above for VEGF-R2, except for the following changes in concentration: FGF-R=50 nM, ATP=2 mM, and poly(E4Y1)=15 mM.

[2] = molecular target: T2, unphosphorylated VEGF-R2D50 (FLVK), cytosolic domain of human VEGF-R2 (Homo sapiens, UniProt P35968, DEL940-989/E990V); assay: VEGF-R2 coupled spectrophotometric assay (FLVK); type: biochemical
T2 construct: VEGF-R2D50 contains residues 806–939 and 990–1171; made in house; host or cells: baculovirus/insect cell system
T2 sequence (P35968 with tags, fused parts or gaps DEL940-989/E990V limits assumed): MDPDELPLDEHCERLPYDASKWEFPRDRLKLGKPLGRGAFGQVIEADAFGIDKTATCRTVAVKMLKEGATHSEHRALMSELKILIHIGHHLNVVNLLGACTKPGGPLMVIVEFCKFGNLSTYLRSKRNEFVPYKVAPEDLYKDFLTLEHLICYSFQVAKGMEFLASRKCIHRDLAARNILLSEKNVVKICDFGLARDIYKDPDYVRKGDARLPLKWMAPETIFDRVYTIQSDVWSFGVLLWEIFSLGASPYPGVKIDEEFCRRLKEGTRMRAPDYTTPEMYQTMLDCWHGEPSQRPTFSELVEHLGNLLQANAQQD
From the text: This construct determines the ability of a test compound to inhibit tyrosine kinase activity. A construct (VEGF-R2D50) of the cytosolic domain of human vascular endothelial growth factor receptor 2 (VEGF-R2) lacking the 50 central residues of the 68 residues of the kinase insert domain was expressed in a baculovirus/insect cell system. Of the 1356 residues of full-length VEGF-R2, VEGF-R2D50 contains residues 806–939 and 990–1171, and also one point mutation (E990V) within the kinase insert domain relative to wild-type VEGF-R2. Autophosphorylation of the purified construct was performed by incubation of the enzyme at a concentration of […] in the presence of 3 mM ATP and 40 mM MgCl2 in 100 mM HEPES, pH 7.5, containing 5% glycerol and 5 mM DTT, at 4° C. for 2 h. […] See Parast et al., Biochemistry, 37, 16788–16801 (1998).
The production of ADP from ATP that accompanies phosphoryl transfer was coupled to oxidation of NADH using phosphoenolpyruvate (PEP) and a system having pyruvate kinase (PK) and lactic dehydrogenase (LDH). The oxidation of NADH was monitored by following the decrease of absorbance at 340 nm (e340=6.22 cm^−1 mM^−1) using a Beckman DU 650 spectrophotometer. Assay conditions for phosphorylated VEGF-R2D50 (indicated as FLVK-P in the tables below) were the following: 1 mM PEP; […]; 50 units of LDH/mL; 20 units of PK/mL; 5 mM DTT; 5.1 mM poly(E4Y1); 1 mM ATP; and 25 mM MgCl2 in 200 mM HEPES, pH 7.5. Assay conditions for unphosphorylated VEGF-R2D50 (indicated as FLVK in the tables) were the following: 1 mM PEP; […]; 50 units of LDH/mL; 20 units of PK/mL; 5 mM DTT; 20 mM poly(E4Y1); 3 mM ATP; and 60 mM MgCl2 and 2 mM MnCl2 in 200 mM HEPES, pH 7.5. Assays were initiated with 5 to 40 nM of enzyme. Ki values were determined by measuring enzyme activity in the presence of varying concentrations of test compounds. The percent inhibition at 50 nm (% inhibition@50 nm) was determined by linear least-squares regression analysis of absorpbance as a function of time. The binding inhibitions were fitted to equation as described by Morrison. The data were analyzed using Enzyme Kinetic and Kaleidagraph software.

Row | inhibition at 0.05 µM [1] [%] | Ki [2] [nM] | SMILES
1 | 0 to 5 | > 10 | Cc1ccc(CNC(=O)Cc2ccc(Oc3ccnc4cc(-c5nccn5C)sc34)cc2Cl)o1 [Example 58, 2-{2-Chloro-4-[2-(1-methyl-1H-imidazol-2-yl)-thieno[3,2-b]pyridin-7-yloxy]-phenyl}-N-(5-methyl-furan-2-ylmethyl)-acetamide]
2 | 0 to 5 | > 10 | CNC(=O)Cc1ccc(Oc2ccnc3cc(C(=O)N4CC[C@H](OC)C4)sc23)cc1 [Example 68, 2-{4-[2-((S)-3-Methoxy-pyrrolidine-1-carbonyl)-thieno[3,2-b]pyridin-7-yloxy]-phenyl}-N-methyl-acetamide]
3 | 0 to 5 | – | Cc1cc(C)nc(NC(=O)Cc2ccc(Oc3ccnc4cc(C(=O)N(C)CCCN(C)C)sc34)cc2)c1 [Example 5, 7-{4-[(4,6-Dimethyl-pyridin-2-ylcarbamoyl)-methyl]-phenoxy}-thieno[3,2-b]pyridine-2-carboxylic acid (3-dimethylamino-propyl)-methyl-amide]
4 | 0 to 5 | – | Cc1cc(NC(=O)Cc2ccc(Oc3ccnc4cc(C(=O)N5CCC5)sc34)cc2)n[nH]1 [Example 39, 2-{4-[2-(Azetidine-1-carbonyl)-thieno[3,2-b]pyridin-7-yloxy]-phenyl}-N-(5-methyl-1H-pyrazol-3-yl)-acetamide]
5 | 0 to 5 | > 10 | O=C(Cc1ccc(Oc2ccnc3cc(C(=O)N4CCC4)sc23)cc1)Nc1ccncc1 [Example 35, 2-{4-[2-(Azetidine-1-carbonyl)-thieno[3,2-b]pyridin-7-yloxy]-phenyl}-N-pyridin-4-yl-acetamide]
6 | 0 to 5 | > 10 | O=C(Cc1ccc(Oc2ccnc3cc(C(=O)N4CCC4)sc23)cc1)Nc1ccon1 [Example 42, 2-{4-[2-(Azetidine-1-carbonyl)-thieno[3,2-b]pyridin-7-yloxy]-phenyl}-N-isoxazol-3-yl-acetamide]
7 | 0 to 5 | > 10 | O=C(Cc1ccc(Oc2ccnc3cc(C(=O)N4CCC4)sc23)cc1Cl)NCCCN1CCOCC1 [Example 57, 2-{4-[2-(Azetidine-1-carbonyl)-thieno[3,2-b]pyridin-7-yloxy]-2-chloro-phenyl}-N-(3-morpholin-4-yl-propyl)-acetamide]
8 | 0 to 5 | > 10 | CNC(=O)C(O)c1ccc(Oc2ccnc3cc(C(=O)N4CC[C@@H](OC)C4)sc23)cc1 (stereo partly drawn) [Example 77, 2-Hydroxy-2-{4-[2-((R)-3-methoxy-pyrrolidine-1-carbonyl)-thieno[3,2-b]pyridin-7-yloxy]-phenyl}-N-methyl-acetamide]
9 | 5 to 10 | > 10 | COC(C(=O)Nc1ccccn1)c1ccc(Oc2ccnc3cc(C(=O)N4CCC4)sc23)cc1 (stereo not shown) [Example 83, 2-{4-[2-(Azetidine-1-carbonyl)-thieno[3,2-b]pyridin-7-yloxy]-phenyl}-2-methoxy-N-pyridin-2-yl-acetamide]
10 | 0 to 5 | > 10 | O=C(Cc1ccc(Oc2ccnc3cc(C(=O)N4CCC4)sc23)cc1)Nc1cc[nH]n1 [Example 40, 2-{4-[2-(Azetidine-1-carbonyl)-thieno[3,2-b]pyridin-7-yloxy]-phenyl}-N-(1H-pyrazol-3-yl)-acetamide]
11 | 0 to 5 | > 10 | CNC(=O)Cc1ccc(Oc2ccnc3cc(C(=O)N4CC[C@@H](O)C4)sc23)c(F)c1 [Example 2, 2-{3-Fluoro-4-[2-((R)-3-hydroxy-pyrrolidine-1-carbonyl)-thieno[3,2-b]pyridin-7-yloxy]-phenyl}-N-methyl-acetamide]
12 | 0 to 5 | > 10 | Cn1ccnc1-c1cc2nccc(Oc3ccc(CC(=O)NCc4cccc(F)c4)c(Cl)c3)c2s1 [Example 59, 2-{2-Chloro-4-[2-(1-methyl-1H-imidazol-2-yl)-thieno[3,2-b]pyridin-7-yloxy]-phenyl}-N-(3-fluoro-benzyl)-acetamide]
13 | 5 to 10 | > 10 | Cc1cc(NC(=O)C(O)c2ccc(Oc3ccnc4cc(C(=O)N5CCC5)sc34)cc2)on1 (stereo not shown) [Example 80, 2-{4-[2-(Azetidine-1-carbonyl)-thieno[3,2-b]pyridin-7-yloxy]-phenyl}-2-hydroxy-N-(3-methyl-isoxazol-5-yl)-acetamide]
14 | 0 to 5 | – | CNC(=O)C(O)c1ccc(Oc2ccnc3cc(-c4nccn4C)sc23)cc1Cl (stereo not shown) [Example 73, 2-{2-Chloro-4-[2-(1-methyl-1H-imidazol-2-yl)-thieno[3,2-b]pyridin-7-yloxy]-phenyl}-2-hydroxy-N-methyl-acetamide]
15 | 0 to 5 | – | CNC(=O)C(OC)c1ccc(Oc2ccnc3cc(-c4nccn4C)sc23)cc1Cl (stereo not shown) [Example 72, 2-{2-Chloro-4-[2-(1-methyl-1H-imidazol-2-yl)-thieno[3,2-b]pyridin-7-yloxy]-phenyl}-2-methoxy-N-methyl-acetamide]
16 | 0 to 5 | > 10 | CNC(=O)C1(c2ccc(Oc3ccnc4cc(C(=O)N5CC[C@@H](O)C5)sc34)cc2)CC1 [Example 67, 1-{4-[2-((R)-3-Hydroxy-pyrrolidine-1-carbonyl)-thieno[3,2-b]pyridin-7-yloxy]-phenyl}-cyclopropanecarboxylic acid methylamide]
17 | 5 to 10 | > 10 | CNC(=O)C(OC)c1ccc(Oc2ccnc3cc(C(=O)N4CC[C@@H](O)C4)sc23)cc1Cl (stereo partly drawn) [Example 70, 2-{2-Chloro-4-[2-((R)-3-hydroxy-pyrrolidine-1-carbonyl)-thieno[3,2-b]pyridin-7-yloxy]-phenyl}-2-methoxy-N-methyl-acetamide]
18 | 0 to 5 | > 10 | CCCCNC(=O)C(O)c1ccc(Oc2ccnc3cc(C(=O)N4CCC4)sc23)cc1 (stereo not shown) [Example 82, 2-{4-[2-(Azetidine-1-carbonyl)-thieno[3,2-b]pyridin-7-yloxy]-phenyl}-N-butyl-2-hydroxy-acetamide]
19 | – | > 10 | Cc1cccnc1NC(=O)Cc1ccc(Oc2ccnc3cc(C(=O)N4CCC4)sc23)cc1 [Example 26, 2-{4-[2-(Azetidine-1-carbonyl)-thieno[3,2-b]pyridin-7-yloxy]-phenyl}-N-(3-methyl-pyridin-2-yl)-acetamide]
20 | > 10 | > 10 | CNC(=O)C(=O)c1ccc(Oc2ccnc3cc(C(=O)N4CC[C@@H](OC)C4)sc23)cc1 [Example 78, 2-{4-[2-((R)-3-Methoxy-pyrrolidine-1-carbonyl)-thieno[3,2-b]pyridin-7-yloxy]-phenyl}-N-methyl-2-oxo-acetamide]
21 | 0 to 5 | > 10 | CNC(=O)C(O)c1ccc(Oc2ccnc3cc(C(=O)N4CC[C@@H](O)C4)sc23)cc1Cl (stereo partly drawn) [Example 71, 2-{2-Chloro-4-[2-((R)-3-hydroxy-pyrrolidine-1-carbonyl)-thieno[3,2-b]pyridin-7-yloxy]-phenyl}-2-hydroxy-N-methyl-acetamide]
22 | 0 to 5 | > 10 | COC(C(=O)Nc1cc(C)no1)c1ccc(Oc2ccnc3cc(C(=O)N4CCC4)sc23)cc1 (stereo not shown) [Example 79, 2-{4-[2-(Azetidine-1-carbonyl)-thieno[3,2-b]pyridin-7-yloxy]-phenyl}-2-methoxy-N-(3-methyl-isoxazol-5-yl)-acetamide]
23 | 5 to 10 | > 10 | O=C(Nc1ccccn1)C(O)c1ccc(Oc2ccnc3cc(C(=O)N4CCC4)sc23)cc1 (stereo not shown) [Example 84, 2-{4-[2-(Azetidine-1-carbonyl)-thieno[3,2-b]pyridin-7-yloxy]-phenyl}-2-hydroxy-N-pyridin-2-yl-acetamide]
24 | 0 to 5 | < 1 | Cc1cc(C)nc(NC(=O)Cc2ccc(Oc3ccnc4cc(-c5nccn5C)sc34)c(F)c2)c1 [Example 1, N-(4,6-Dimethyl-pyridin-2-yl)-2-{3-fluoro-4-[2-(1-methyl-1H-imidazol-2-yl)-thieno[3,2-b]pyridin-7-yloxy]-phenyl}-acetamide]
